ChEMBL document CHEMBL5500384, “New synergistic benzoquinone scaffolds as inhibitors of mycobacterial cytochrome bc1 complex to treat multi-drug resistant tuberculosis” (Eur J Med Chem, 2024)
Converted amounts (≈) assume the structure as drawn.

Tests used:
[1] = Hepatotoxicity in Albino mouse assessed as change in portal vein at 50 to 2000 mg/kg, po measured after 14 days; type: toxicity, organism-based; conditions: in vivo, 336 h, dose 50-2000 mg/kg, time 14 day
[2] = Acute toxicity in Albino mouse assessed as change in RBC count measured per million cells at 50 to 2000 mg/kg, po measured after 14 days (reference value: 9.15 microL); type: organism-based, Erythrocyte; conditions: in vivo, 336 h, dose 50-2000 mg/kg, time 14 day
[3] = Acute toxicity in Albino mouse assessed as change in platelet count at 50 to 2000 mg/kg, po measured after 14 days (reference value: 3.24 mm3); type: organism-based; design: unit not given here; conditions: in vivo, 336 h, dose 50-2000 mg/kg, time 14 day
[4] = Cytotoxicity against african green monkey Vero cells assessed as cell viability at 50 ug/ml by MTT assay; type: toxicity, cell-based; conditions: chlorocebus sabaeus, at 50 µg/mL, read-out: Activity
[5] = system: Mycolicibacterium smegmatis; assay: Antibacterial activity against Mycobacterium smegmatis ATCC 14468 assessed as log2 fold change in dihydroorotate dehydrogenase expression at 3 ug/ml incubated for 12 hrs by mass spectrometric analysis; type: functional; conditions: dose 3 µg/ml
[6] = Renal toxicity in Albino mouse assessed as change in renal corpuscles at 50 to 2000 mg/kg, po measured after 14 days; type: organism-based; conditions: in vivo, 336 h, dose 50-2000 mg/kg, time 14 day
[7] = Acute toxicity in Albino mouse assessed as change in monocytes at 50 to 2000 mg/kg, po measured after 14 days (reference value: 1%); type: organism-based; conditions: in vivo, 336 h, dose 50-2000 mg/kg, time 14 day
[8] = Hepatotoxicity in Albino mouse assessed as change in bile duct at 50 to 2000 mg/kg, po measured after 14 days; type: toxicity, organism-based, Liver; conditions: in vivo, 336 h, dose 50-2000 mg/kg, time 14 day
[9] = system: Mycolicibacterium smegmatis; assay: Antibacterial activity against Mycobacterium smegmatis ATCC 14468 assessed as log2 fold change in beta-alanine metabolite level by mass spectrometry analysis; type: functional
[10] = system: Mycolicibacterium smegmatis; assay: Antibacterial activity against Mycobacterium smegmatis ATCC 14468 assessed as log2 fold change in l-Glutathione oxidized metabolite level by mass spectrometry analysis; type: functional
[11] = Cytotoxicity against african green monkey Vero cells by MTT assay; type: toxicity, cell-based; conditions: chlorocebus sabaeus
[12] = Hepatotoxicity in Albino mouse assessed as change in portal tracks at 50 to 2000 mg/kg, po measured after 14 days; type: toxicity, organism-based; conditions: in vivo, 336 h, dose 50-2000 mg/kg, time 14 day
[13] = system: Mycolicibacterium smegmatis; assay: Antibacterial activity against Mycobacterium smegmatis ATCC 14468 assessed as log2 fold change in N-Acetyl-l-glutamic acid metabolite level by mass spectrometry analysis; type: functional
[14] = system: Mycolicibacterium smegmatis; assay: Antibacterial activity against Mycobacterium smegmatis ATCC 14468 assessed as log2 fold change in 24-methylenecholesterol metabolite level by mass spectrometry analysis; type: functional
[15] = Acute toxicity in Albino mouse assessed as change in lymphocytes at 50 to 2000 mg/kg, po measured after 14 days (reference value: 21%); type: organism-based; conditions: in vivo, 336 h, dose 50-2000 mg/kg, time 14 day
[16] = system: Mycolicibacterium smegmatis; assay: Antibacterial activity against Mycobacterium smegmatis ATCC 14468 assessed as log2 fold change in methylase expression at 3 ug/ml incubated for 12 hrs by mass spectrometric analysis; type: functional; conditions: dose 3 µg/ml
[17] = Cytotoxicity against african green monkey Vero cells assessed as cell viability at 6.25 ug/ml by MTT assay; type: toxicity, cell-based; conditions: chlorocebus sabaeus, at 6.25 µg/mL, read-out: Activity
[18] = system: Mycolicibacterium smegmatis; assay: Antibacterial activity against Mycobacterium smegmatis ATCC 14468 assessed as log2 fold change in NADH-quinone oxidoreductase subunit C expression at 3 ug/ml incubated for 12 hrs by mass spectrometric analysis; type: functional; conditions: dose 3 µg/ml
[19] = Acute toxicity in po dosed Albino mouse assessed as mortality after 14 days; type: organism-based; conditions: in vivo, time 14 day
[20] = Acute toxicity in Albino mouse assessed as change in neutrophils at 50 to 2000 mg/kg, po measured after 14 days (reference value: 75%); type: organism-based; conditions: in vivo, 336 h, dose 50-2000 mg/kg, time 14 day
[21] = system: Mycobacterium tuberculosis; assay: Antitubercular activity against Mycobacterium tuberculosis H37Rv incubated for 5 days by microtiter plate method; type: functional; conditions: 120 h, time 5 day
[22] = system: Mycolicibacterium smegmatis; assay: Antibacterial activity against Mycobacterium smegmatis ATCC 14468 assessed as log2 fold change in histidine kinase expression at 3 ug/ml incubated for 12 hrs by mass spectrometric analysis; type: functional; conditions: dose 3 µg/ml
[23] = system: Mycolicibacterium smegmatis; assay: Antibacterial activity against Mycobacterium smegmatis ATCC 14468 assessed as log2 fold change in (22S)-22-hydroxycampest-4-en-3-one metabolite level by mass spectrometry analysis; type: functional
[24] = system: Mycolicibacterium smegmatis; assay: Antibacterial activity against Mycobacterium smegmatis ATCC 14468 assessed as log2 fold change in cytochrome P450 107B1 expression at 3 ug/ml incubated for 12 hrs by mass spectrometric analysis; type: functional; conditions: dose 3 µg/ml
[25] = Hepatotoxicity in Albino mouse assessed as change in hepatic artery at 50 to 2000 mg/kg, po measured after 14 days; type: toxicity, organism-based, Liver; conditions: in vivo, 336 h, dose 50-2000 mg/kg, time 14 day
[26] = Renal toxicity in Albino mouse assessed as change in renal tubules at 50 to 2000 mg/kg, po measured after 14 days; type: organism-based; conditions: in vivo, 336 h, dose 50-2000 mg/kg, time 14 day
[27] = system: Mycolicibacterium smegmatis; assay: Antibacterial activity against Mycobacterium smegmatis ATCC 14468 assessed as reduction in bacterial growth at 12 ug/ml incubated for 48 hrs by spectrometry analysis; type: functional; design: scale not given: the % may be the effect or the level left; conditions: dose 12 µg/ml
[28] = system: Mycolicibacterium smegmatis; assay: Antibacterial activity against Mycobacterium smegmatis ATCC 14468 assessed as log2 fold change in membrane transport protein expression at 3 ug/ml incubated for 12 hrs by mass spectrometric analysis; type: functional; conditions: dose 3 µg/ml
[29] = Pulmonary toxicity in Albino mouse assessed as appearance of goblet cells at 50 to 2000 mg/kg, po measured after 14 days; type: organism-based; conditions: in vivo, 336 h, dose 50-2000 mg/kg, time 14 day
[30] = system: Mycolicibacterium smegmatis; assay: Antibacterial activity against Mycobacterium smegmatis ATCC 14468 assessed as log2 fold change in shikimate transporter expression at 3 ug/ml incubated for 12 hrs by mass spectrometric analysis; type: functional; conditions: dose 3 µg/ml
[31] = system: Mycolicibacterium smegmatis; assay: Antibacterial activity against Mycobacterium smegmatis ATCC 14468 assessed as log2 fold change in MmpL protein expression at 3 ug/ml incubated for 12 hrs by mass spectrometric analysis; type: functional; conditions: dose 3 µg/ml
[32] = system: Mycolicibacterium smegmatis; assay: Antibacterial activity against Mycobacterium smegmatis ATCC 14468 assessed as log2 fold change in MscS expression at 3 ug/ml incubated for 12 hrs by mass spectrometric analysis; type: functional; conditions: dose 3 µg/ml
[33] = system: Mycolicibacterium smegmatis; assay: Antibacterial activity against Mycobacterium smegmatis ATCC 14468 assessed as log2 fold change in adenosine metabolite level by mass spectrometry analysis; type: functional
[34] = system: Mycolicibacterium smegmatis; assay: Antibacterial activity against Mycobacterium smegmatis ATCC 14468 assessed as log2 fold change in GluD expression at 3 ug/ml incubated for 12 hrs by mass spectrometric analysis; type: functional; conditions: dose 3 µg/ml
[35] = Acute toxicity in Albino mouse assessed as change in ALP level at 50 to 2000 mg/kg, po measured after 14 days (reference value: 28 IU/L); type: organism-based; conditions: in vivo, 336 h, dose 50-2000 mg/kg, time 14 day
[36] = system: Mycolicibacterium smegmatis; assay: Antibacterial activity against Mycobacterium smegmatis ATCC 14468 assessed as log2 fold change in probable cytochrome c oxidase subunit 3 expression at 3 ug/ml incubated for 12 hrs by mass spectrometric analysis; type: functional; conditions: dose 3 µg/ml
[37] = Cytotoxicity against african green monkey Vero cells assessed as cell viability at 3.125 ug/ml by MTT assay; type: toxicity, cell-based; conditions: chlorocebus sabaeus, at 3.125 µg/mL, read-out: Activity
[38] = Renal toxicity in Albino mouse assessed as change in tubular capillaries at 50 to 2000 mg/kg, po measured after 14 days; type: organism-based; conditions: in vivo, 336 h, dose 50-2000 mg/kg, time 14 day
[39] = Acute toxicity in Albino mouse assessed as change in LDH level at 50 to 2000 mg/kg, po measured after 14 days (reference value: 1052 IU/L); type: organism-based; conditions: in vivo, 336 h, dose 50-2000 mg/kg, time 14 day

Structure (SMILES)	Activity [1]	viability at 50 ug/ml [4] [%]	log2FC [5]	Activity [6]	Activity [7] [%]	Activity [8]	log2FC [9]	log2FC [10]	Activity [12]	log2FC [13]	log2FC [14]	Activity [15] [%]	log2FC [16]	viability at 6.25 ug/ml [17] [%]	log2FC [18]	Activity [20] [%]	MIC [21] [µM]	log2FC [22]	log2FC [23]	log2FC [24]	further results
COc1ccc(C2C(Cl)C(=O)N2C2=C(Cl)C(=O)c3ccccc3C2=O)cc1 (stereo not drawn)	Non-Toxic	8.7	-1.89	Non-Toxic	1	Non-Toxic	-2.47	-1.04	Non-Toxic	-1.34	1.74	32	-6.64	100	-1.9	62	31.1 (≈ 12.5 µg/mL)	-6.64	2.67	6.64	Activity [2]: 9.4; Activity [3]: 5.82; Activity [11]: Dose-Dependent Effect; LD50 at 336 h [19]: 50 mg/kg; Activity [25]: Non-Toxic; Activity [26]: Non-Toxic; Activity [27]: 80%; log2FC [28]: -6.64; Activity [29]: Non-Toxic; log2FC [30]: -6.64; log2FC [31]: -1.45; log2FC [32]: -2.45; log2FC [33]: -2.55; log2FC [34]: -1.11; Activity [35]: 44 IU/L; log2FC [36]: 2.57; viability at 3.125 ug/ml [37]: 100%; Activity [38]: Non-Toxic; Activity [39]: 842 IU/L
CN(C)c1ccc(C2C(Cl)C(=O)N2C2=C(Cl)C(=O)c3ccccc3C2=O)cc1 (stereo not drawn)	Non-Toxic	25.4	-1.47	Non-Toxic	1	Non-Toxic	-1.29	-1.8	Non-Toxic	-1.04	0.69	34	-1.9	100	-1.41	60	15.1 (≈ 6.25 µg/mL)	-6.64	3.41	6.64	Activity [2]: 9.67; Activity [3]: 6.22; Activity [11]: Dose-Dependent Effect; LD50 at 336 h [19]: 300 mg/kg; Activity [25]: Non-Toxic; Activity [26]: Non-Toxic; Activity [27]: 80%; log2FC [28]: -6.64; Activity [29]: Non-Toxic; log2FC [30]: -6.64; log2FC [31]: -6.64; log2FC [32]: -3.03; log2FC [33]: -1.69; log2FC [34]: -1.78; Activity [35]: 52 IU/L; log2FC [36]: 2.37; viability at 3.125 ug/ml [37]: 100%; Activity [38]: Non-Toxic; Activity [39]: 756 IU/L
O=C1C(Cl)=C(Cl)C(=O)c2ccccc21 [Dichlon]	Non-Toxic	36.1	-1.92	Non-Toxic	1	Non-Toxic	-1	-2.01	Non-Toxic	-0.61	2.01	53	-1.53	100	-2.08	43	13.8 (≈ 3.12 µg/mL)	-6.64	-2.01	6.64	Activity [25]: Non-Toxic; Activity [26]: Non-Toxic; Activity [27]: 80%; log2FC [28]: -1.79; Activity [29]: Non-Toxic; log2FC [30]: -6.64; log2FC [31]: -6.64; log2FC [32]: -4.39; log2FC [33]: -1.31; log2FC [34]: -3.7; Activity [35]: 33 IU/L; log2FC [36]: 2.56; viability at 3.125 ug/ml [37]: 100%; Activity [38]: Non-Toxic; Activity [39]: 1030 IU/L
